Reference: patent US9346818B2 (priority 2012, dated 2016)
“Also recorded” adds a separate entry of the source. Where a name gives a salt, the structure may show the parent alone. Read-outs that look alike come from different tables or passages of the source.

What was measured:
[1] = test system: learning and memory disorder of mice induced by scopolamine; assay: Morris water maze test, senile dementia mice model induced by scopolamine; format: in vivo; conditions: for effect on learning and memory disorder of mice induced by scopolamine: Morris water maze, in comparison with model group / donepezil hydrochloride group; for latent period day 1 / latent period day 2 / latent period day 3 / latent period day 4 / latent period day 5 / times of crossing platform: scopolamine 1 mg/kg
[2] = target: acetylcholinesterase (Homo sapiens (Human), UniProt P22303); assay: biochemical; format: biochemical; conditions: for potency on acetylcholinesterase compared with positive control drug donepezil hydrochloride: enzymology level
[3] = test system: malonaldehyde (MDA); assay: Biochemical indicators of brain tissues (MDA assay) in scopolamine mice; format: in vivo; conditions: 5 mg/kg; for MDA(nmol/mgprot): brain tissue homogenate
Method: After the behavior test was complete, the mice were sacrificed, brain tissues were collected (operated on an ice plate) and prepared into 10% of tissue homogenate with pre-cooled physiological saline, centrifuged (3000 rpm, 10 min), and the supernatant was subjected to malonaldehyde (MDA) assay following the kits.

[4] = test system: learning and memory disorder induced by intracerebroventricular injection of Aβ1-42; assay: Morris water maze test, rats with intracerebroventricular injection of Aβ1-42; format: in vivo; conditions: Aβ1-42 rats
Method: The model of learning and memory disorder induced after intracerebroventricular injection of Aβ1-42 is the most common animal model for evaluating whether a compound has the effect of improving the learning and memory. […] Morris water maze test and the model of learning and memory disorder induced by intracerebroventricular injection of Aβ1-42 were employed in the present research, and the improvement effects of I-33 on learning and memory of rats at various concentration (0.7 mg/Kg, 3.5 mg/Kg, and 7 mg/Kg) were evaluated.
SD, male (220±20 g), the animals were fed in light: dark cycle (12 h/12 h) in a cleaning level of animal room, ad lib. The tests were performed after 3 days acclimation in the animal room. Aβ1-42 was formulated to 2 μg/μl according to the instruction of specification.
(1) Normal group: intracerebroventricular injection of physiological saline
(2) Model group with intracerebroventricular injection of Aβ1-42: intracerebroventricular injection of Aβ1-42
(4) I-33 (low concentration group): I-33 (0.7 mg/Kg)+intracerebroventricular injection of Aβ1-42
(5) I-33 (medium concentration group): I-33 (3.5 mg/Kg)+intracerebroventricular injection of Aβ1-42
(6) I-33 (high concentration group): I-33 (7 mg/Kg)+intracerebroventricular injection of Aβ1-42
Each rat in normal control group received intracerebroventricular injection of 5 μl of physiological saline, each rat in the other groups received intracerebroventricular injection of 5 μl of Aβ1-42. After the operation, the rats received the following tests after 1 week recovery period. […] The drugs were administered for 8 days, the training for water maze test was started on the 5th day, and the water maze test was formally started on the 9th day.

[5] = modified Ellman method, read-out: IC50 (nM), inhibition activity on acetylcholinesterase
[6] = DPH 3 mg/Kg, I-33 all dosages tested

acetylcholinesterase, sequence (P22303 32-614, species assumed): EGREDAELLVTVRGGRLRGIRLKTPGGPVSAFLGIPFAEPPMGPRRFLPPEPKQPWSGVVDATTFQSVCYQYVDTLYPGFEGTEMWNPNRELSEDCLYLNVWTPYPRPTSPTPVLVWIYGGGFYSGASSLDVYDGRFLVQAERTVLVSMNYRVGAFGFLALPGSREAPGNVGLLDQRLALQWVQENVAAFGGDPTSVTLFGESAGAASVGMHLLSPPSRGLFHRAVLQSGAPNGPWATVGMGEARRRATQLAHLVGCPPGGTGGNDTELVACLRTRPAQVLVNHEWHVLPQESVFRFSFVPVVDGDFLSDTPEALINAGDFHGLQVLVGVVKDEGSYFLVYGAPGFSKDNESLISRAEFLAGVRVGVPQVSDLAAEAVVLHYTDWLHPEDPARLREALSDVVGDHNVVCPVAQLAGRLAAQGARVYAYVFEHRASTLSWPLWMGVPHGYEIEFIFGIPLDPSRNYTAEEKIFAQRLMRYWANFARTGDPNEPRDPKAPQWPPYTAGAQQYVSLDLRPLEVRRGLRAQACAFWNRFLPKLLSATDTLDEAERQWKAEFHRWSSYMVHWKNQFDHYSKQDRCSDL

Row | Structure (SMILES) | effect on learning and memory disorder of mice induced by scopolamine [1] | latent period day 1 ([1]; Table 2, 5 mg/kg intragastric) [s] | latent period day 2 ([1]; Table 2, 5 mg/kg intragastric) [s] | latent period day 3 ([1]; Table 2, 5 mg/kg intragastric) [s] | latent period day 4 ([1]; Table 2, 5 mg/kg intragastric) [s] | latent period day 5 ([1]; Table 2, 5 mg/kg intragastric) [s] | times of crossing platform ([1]; Table 2, 5 mg/kg intragastric) | potency on acetylcholinesterase compared with positive control drug donepezil hydrochloride ([2]; in vitro) | IC50 [2, 5] [nM] | MDA(nmol/mgprot) [3] [nmol/mgprot] | latent period day 1 ([1]; Table 4, 5 mg/kg intragastric) [s] | latent period day 2 ([1]; Table 4, 5 mg/kg intragastric) [s] | latent period day 3 ([1]; Table 4, 5 mg/kg intragastric) [s] | latent period day 4 ([1]; Table 4, 5 mg/kg intragastric) [s] | latent period day 5 ([1]; Table 4, 5 mg/kg intragastric) [s] | times of crossing platform ([1]; Table 4, 5 mg/kg intragastric) | other results
1 | O=C1c2cc3c(cc2C2(CC2)N1CCC1CCN(Cc2ccccc2)CC1)OCO3 [Compound I-17, 6-[2-(1-benzyl-4-piperidyl)ethyl]spiro[[1,3]dioxolo[4,5-f]isoindole-7,1′-cyclopropane]-5-one] | superior to the donepezil hydrochloride group; also recorded: had the effect of improving the learning and memory disorder of mice induced by scopolamine; also recorded: stronger effects of improving learning and memory | 56.8 ± 8.6 | 60 ± 0 | 48.7 ± 15.7 | 56.7 ± 8.1 | 47.2 ± 13.4 | 1.8 ± 2.5 | slightly lower potency than the positive control drug; also recorded: comparable inhibition activity on acetylcholinesterase with donepezil hydrochloride | – | – | – | – | – | – | – | – | latent period day 1 ([1]; Table 6, 5 mg/kg intragastric): 57.3 ± 6.7 s; latent period day 2 ([1]; Table 6, 5 mg/kg intragastric): 56.3 ± 9.1 s; latent period day 3 ([1]; Table 6, 5 mg/kg intragastric): 52.5 ± 10.4 s; latent period day 4 ([1]; Table 6, 5 mg/kg intragastric): 46.4 ± 16.6 s; latent period day 5 ([1]; Table 6, 5 mg/kg intragastric): 43.7 ± 11.8 s; times of crossing platform ([1]; Table 6, 5 mg/kg intragastric): 2.00 ± 1.41; latent period day 1 ([1]; Table 6, 10 mg/kg intragastric): 59.9 ± 0.3 s; latent period day 2 ([1]; Table 6, 10 mg/kg intragastric): 58.1 ± 6.2 s; latent period day 3 ([1]; Table 6, 10 mg/kg intragastric): 51.1 ± 12.0 s; latent period day 4 ([1]; Table 6, 10 mg/kg intragastric): 42.1 ± 15.5 s; latent period day 5 ([1]; Table 6, 10 mg/kg intragastric): 39.3 ± 16.7 s; times of crossing platform ([1]; Table 6, 10 mg/kg intragastric): 2.60 ± 1.96; IC50 ([2]; IC50 (nM), inhibition activity on acetylcholinesterase, modified Ellman method): 202 nM
2 | O=C1c2cc3c(cc2C2(CC2)N1CCC1CCN(Cc2ccccc2F)CC1)OCO3 [Compound I-18, 6-[2-[1-[(2-fluorophenyl)methyl]-4-piperidyl]ethyl]spiro[[1,3]dioxolo[4,5-f]isoindole-7,1′-cyclopropane]-5-one] | can improve the learning and memory disorder of the animals induced by scopolamine | 60 ± 0 | 60 ± 0 | 53.1 ± 10.4 | 56.9 ± 8.2 | 56.8 ± 8.6 | 0.5 ± 0.6 | slightly lower potency than the positive control drug | 154 | – | – | – | – | – | – | – | latent period day 1 ([1]; Table 3, 5 mg/kg intragastric): 55.0 ± 10.3 s; latent period day 2 ([1]; Table 3, 5 mg/kg intragastric): 55.9 ± 9.0 s; latent period day 3 ([1]; Table 3, 5 mg/kg intragastric): 60 ± 0 s; latent period day 4 ([1]; Table 3, 5 mg/kg intragastric): 51.8 ± 15.6 s; latent period day 5 ([1]; Table 3, 5 mg/kg intragastric): 35.6 ± 15.4 s; times of crossing platform ([1]; Table 3, 5 mg/kg intragastric): 1.5 ± 1.7; latent period day 1 ([1]; Table 3, 10 mg/kg intragastric): 56.0 ± 9.9 s; latent period day 2 ([1]; Table 3, 10 mg/kg intragastric): 52.4 ± 12.4 s; latent period day 3 ([1]; Table 3, 10 mg/kg intragastric): 60 ± 0 s; latent period day 4 ([1]; Table 3, 10 mg/kg intragastric): 48.8 ± 15.4 s; latent period day 5 ([1]; Table 3, 10 mg/kg intragastric): 49.2 ± 15.9 s; times of crossing platform ([1]; Table 3, 10 mg/kg intragastric): 1.5 ± 1.2
3 | O=C1c2cc3c(cc2C2(CC2)N1CCC1CCN(Cc2ccccn2)CC1)OCO3 [Compound I-29, 6-[2-[1-(2-pyridylmethyl)-4-piperidyl]ethyl]spiro[[1,3]dioxolo[4,5-f]isoindole-7,1′-cyclopropane]-5-one] | stronger effects of improving learning and memory | – | – | – | – | – | – | even lower | – | 6.66 ± 1.75 | 59.3 ± 2.7 | 54.6 ± 12.5 | 48.0 ± 15.8 | 46.0 ± 16.3 | 40.4 ± 21.6 | 1.5 ± 1.4 | content of MDA in brains / antioxidation effect [3]: significant antioxidation effect; inhibition activity on acetylcholinesterase in vitro relative to donepezil hydrochloride ([2]; in vitro): about 10%; IC50 ([2]; read-out: IC50 (nM), inhibition activity on acetylcholinesterase): 903 nM
4 | COc1cc2c(cc1OC)C(=O)C(CC1CCN(Cc3ccccc3)CC1)C2 (stereo not shown) [DPH, donepezil hydrochloride, reference compound] | – | – | – | – | – | – | – | – | – | – | – | – | – | – | – | – | The period of reaching the platform for the first time (latent period) ([4]; 3 mg/Kg intragastric, 8 days): 23.94 ± 4.84; times of crossing platform ([4]; 3 mg/Kg intragastric, 8 days): 3.22 ± 0.55; effect on period required for reaching the platform for the first time (latent period) [4, 6]: significantly shorten the period required for reaching the platform for the first time; effect on times of crossing the platform [4, 6]: significantly increases the times of crossing the platform
5 | Cc1ccccc1CN1CCC(CCN2C(=O)c3cc4c(cc3C23CC3)OCO4)CC1 [Compound I-23, 6-[2-[1-(o-tolylmethyl)-4-piperidyl]ethyl]spiro[[1,3]dioxolo[4,5-f]isoindole-7,1′-cyclopropane]-5-one] | – | – | – | – | – | – | – | even lower | 959 | 6.53 ± 2.3 | 57.8 ± 5.4 | 57.7 ± 7.1 | 55.5 ± 8.8 | 43.9 ± 14.1 | 51.8 ± 10.9 | 1.5 ± 1.5 | –
